Data from patent US8652785B2, “Method of screening a modulator of endothelial NO synthase comprising the use of heme binding protein 1” (Sanofi, priority 2008, dated 2014).

Legend:
HEBP1_predicted mRNA = assay: HEBP1_predicted expression in cardiac tissue of rats with chronic heart failure after myocardial infarction; type: in vivo; conditions: 10 mg/kg/day for 9 weeks, versus placebo, mRNA relative to GAPDH
Description: Rats were divided in three groups. One group was sham-operated (group 1), whereas in groups 2 and 3 chronic heart failure was induced by myocardial infarction. Only, the latter group was treated with AVE3085 (10 mg/(kg day)) for 9 weeks. Thereafter, mRNA expression (HEBP1 in comparison to GAPDH) was determined in heart tissue. Means±SD of 7 experiments are shown, * p<0.05 vs. sham operated.
In another context, an animal study was conducted, in which rats developed chronic heart failure after an induced myocardial infarction. From available RNA samples from cardiac tissue it was possible to determine the expression of HEBP1_predicted at the mRNA level. […]
Isolation of RNA from the cell types used was carried out using the RNeasy® mini-isolation method. […] The concentration and purity of the prepared RNA were determined using a NanoDrop® ND-1000 spectrophotometer (NanoDrop Technologies Inc., Wilmington, USA). In this, from a total volume of 2 μl, the absorption of the samples was measured at a wavelength of λ=260 nm (A260) for nucleic acids. Conversion of the measured absorption to the concentration of the RNA solution was carried out by means of the extinction coefficient of 40 ng×cm^−1×μl^−1 on the basis of the Lambert-Beer law. […] The RNA obtained was then diluted in the ratio 1:5 and either used immediately in a quantitative RT-PCR or stored at −80° C. for future use. […]

eNOS promoter [1] = assay: eNOS-transcription test (eNOS-promoter luciferase reporter cell line EA.csr03); type: cell-based; conditions: Homo sapiens; EA.csr03 cells, nonlinear regression; read-out: EC50 in the eNOS-transcription test
Description: The EA.csr03 cells are cells of a stable eNOS-promoter luciferase cell line. It was obtained by transfection of EA.hy926 cells with a firefly luciferase reporter construct, with a 3.5 kb fragment of the eNOS-promoter added. Cultivation of these cells was carried out with IMDM with GlutaMAX™ I supplemented with 100 U/ml penicillin, 100 μg/ml streptomycin, 10% FCS and 0.4 mg/ml geneticin as selection antibiotic. The EA.hy926 cells are a stable human cell line, which was obtained by fusion of HUVEC with the human […] cell line A549. This cell line is characterized by expression of specific endothelial cell markers, e.g. the “van-Willebrand factor”. The cells used are an original culture of Cora Jean Edgell of passage 32. The cells were cultivated in IMDM with GlutaMAX™ I supplemented with 100 U/ml penicillin, 100 μg/ml streptomycin, HAT Hybri-Max™ medium additive (hypoxanthine, aminopterin and thymidine) and Biotect protective medium.
For transcription test for eNOS promoter activation, 20 000 cells per well of the reporter cell line EA.csr03 were sown in a white 96-well cell culture plate. After 24 hours, various dilutions of the substance in cell culture medium were prepared starting from DMSO stock solutions and were preincubated for 10 min at 37° C. on a water bath. Then these incubation media (100 μl/well) were added to the cells. After incubation for 18 hours, the cells were washed twice with DPBS (100 μl/well) and luciferase lysis buffer (50 μl/well) was added. After 10 min, the solubilized luciferase-substrate luciferin (100 μl/well) was added to the cell lysates. During the luciferase-catalyzed oxidation of luciferin to oxyluciferin there is release of chemiluminescence. […] The light units released were measured in the Genios microplate reader from Tecan Deutschland (Crailsheim, Germany).

eNOS promoter [2] = assay: eNOS-transcription test after siRNA transfection of EA.csr03 cells; type: cell-based, human
Description: For liposomal transfection of siRNA in endothelial cells, EA.hy926 or EA.csr03 cells were sown with a density of 50 000 cells per well in a volume of 100 μl growth medium in 96-well plates. After incubation for 24 h in an incubator, the cells were washed with sterile DPBS and were covered in each case with 100 μl/well of serum-free and antibiotic-free special medium Opti-MEM® I. Then the siRNAs (see below) used were preincubated with Lipofectamine™ 2000 in accordance with the manufacturer's instructions and finally 50 μl/well of the transfection mixture was added to the cells. Unless stated otherwise, the siRNAs were used at final concentrations of 100 nM. Per well, after previous optimization, 0.8 μl of Lipofectamine™ 2000 was used for transfection of the EA.hy926 cells, and 0.5 μl for the EA.csr03 cells. After the cells had been incubated in an incubator for 6 hours, the transfection medium was replaced with normal growth medium and the next experimental steps were carried out in the time frame of 24-72 hours after transfection. Primary HUVECs were sown at 100 000 cells per well in Collagen I-coated 6-well plates and were cultivated in normal growth medium up to 60-70% confluence. Prior to transfection, the cells were washed with sterile DPBS and covered in each case with 800 μl/well of serum-free and antibiotic-free special medium Opti-MEM® I. 6 μl Lipofectin® and siRNA at a final concentration of 100 nM were used per well. […]
The survey of the efficiencies of different siRNAs to the target proteins were tested. The respective residual mRNA was determined by quantitative RT-PCR, 24 hours after transfection of human endothelial cells (EA.hy926/EA.csr03). […] After cell lysis, the luciferase activity and the total cellular protein content were determined.
For transcription test for eNOS promoter activation, 20 000 cells per well of the reporter cell line EA.csr03 were sown in a white 96-well cell culture plate. […] The light units released were measured in the Genios microplate reader from Tecan Deutschland (Crailsheim, Germany). […]

## O=C(NC1Cc2ccccc2C1)c1ccc2c(c1)OC(F)(F)O2 [AVE3085]
HEBP1_predicted mRNA
  influence of treatment on expression of HEBP1_predicted in heart: did not show any influence at all
eNOS promoter [1]
  EC50: 400 nM
eNOS promoter [2]; AVE3085 5 μM, 18 h, siHEBP1 25
  induction of the eNOS promoter versus DMSO-control, HEBP1 switched off using siHEBP1 25: 1.6 factor
eNOS promoter [2]; AVE3085 5 μM, 18 h, siLV2-control
  induction of the eNOS promoter versus DMSO-control, siLV2-treated control cells: 2.4 factor
eNOS promoter [2]; HEBP1 siRNA
  reduction of eNOS-promoter activation by AVE3085 after switching-off of HEBP1 by siRNA versus siLV2-control: 64%
